Active and inactive are the calls of the source.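 Rule for the calls: active = in confirmatory dose-response testing, peak deubiquitinase inhibition of 30% or more; inactive = the rest.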
The molecules below were run against Ubiquitin carboxyl-terminal hydrolase 28 (Homo sapiens) (UniProt Q96RU2) (assay: Concentration-response biochemical assay confirming initial hits as inhibitors of ubiquitin-specific protease 28 (AID 1645866)). Details: purified USP28, ubiquitin-rhodamine fluorescence, 30 min.
Sequence of Ubiquitin carboxyl-terminal hydrolase 28 (Homo sapiens) (Q96RU2 whole entry, looked up): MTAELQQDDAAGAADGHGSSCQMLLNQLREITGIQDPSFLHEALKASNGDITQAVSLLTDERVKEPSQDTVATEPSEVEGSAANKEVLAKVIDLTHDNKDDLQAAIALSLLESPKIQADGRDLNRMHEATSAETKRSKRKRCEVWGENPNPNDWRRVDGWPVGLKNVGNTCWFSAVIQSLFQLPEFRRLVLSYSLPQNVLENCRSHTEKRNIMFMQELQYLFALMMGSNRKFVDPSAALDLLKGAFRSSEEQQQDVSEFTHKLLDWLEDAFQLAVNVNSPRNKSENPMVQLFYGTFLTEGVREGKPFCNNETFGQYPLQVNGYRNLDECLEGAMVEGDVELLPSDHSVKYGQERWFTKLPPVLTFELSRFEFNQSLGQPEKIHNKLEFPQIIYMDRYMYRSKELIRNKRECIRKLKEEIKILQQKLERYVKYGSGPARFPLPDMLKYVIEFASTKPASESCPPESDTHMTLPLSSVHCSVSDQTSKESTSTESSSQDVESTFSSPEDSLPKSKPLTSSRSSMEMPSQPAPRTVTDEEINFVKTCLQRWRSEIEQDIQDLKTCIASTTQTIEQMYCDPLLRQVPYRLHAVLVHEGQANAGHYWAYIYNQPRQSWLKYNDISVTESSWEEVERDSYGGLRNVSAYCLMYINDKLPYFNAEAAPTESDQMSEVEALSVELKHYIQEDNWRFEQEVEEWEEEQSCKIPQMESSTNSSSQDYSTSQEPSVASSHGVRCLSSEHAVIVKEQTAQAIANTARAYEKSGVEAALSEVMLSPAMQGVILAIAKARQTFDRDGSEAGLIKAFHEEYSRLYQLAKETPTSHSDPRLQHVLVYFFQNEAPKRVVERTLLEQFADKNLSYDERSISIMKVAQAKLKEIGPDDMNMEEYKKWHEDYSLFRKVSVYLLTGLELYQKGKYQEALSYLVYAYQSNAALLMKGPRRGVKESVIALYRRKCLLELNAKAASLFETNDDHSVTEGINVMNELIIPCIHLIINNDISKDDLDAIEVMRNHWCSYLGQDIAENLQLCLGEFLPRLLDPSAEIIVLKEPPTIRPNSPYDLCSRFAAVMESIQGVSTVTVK

Structure (SMILES)	IC50
COc1ccc(S(=O)(=O)N(C)Cc2cccs2)cc1OC	17.4 µM
O=C(CNC(=O)c1cc2ccccc2o1)Nc1ccc2c(c1)OCCO2	18.3 µM
COc1cccc(N2CCN(c3ccc4nnc(CCC(=O)N5CCc6ccccc6C5)n4n3)CC2)c1	22.8 µM
COCC(=O)Nc1cc(F)c2nc(N3CCOCC3)ccc2c1	> 50 µM (inactive)
CCCCCn1c(Sc2ccc(C)cc2)nc2c1c(=O)[nH]c(=O)n2C	14.5 µM
COc1ccc(NC(=O)CN2CCN(c3ccc(C(C)=O)cc3)CC2)cc1S(=O)(=O)N1CCCCC1	40.4 µM
Cn1c(-c2nnc(SCC(=O)NCCc3ccccc3)o2)cc2ccccc21	23.7 µM
CCCN1CCN(C(=O)c2cc(NC(=O)C3CCC3)cc3nc(C)ccc23)CC1	> 50 µM (inactive)
Cc1cc(C)n(-c2ccc(C(=O)NCc3ccc(F)cc3)cn2)n1	19.7 µM
COc1ccc(NC(=O)c2ccc(-n3nnnc3SC)cc2)cc1Cl	31.1 µM
O=C(CNc1nc(Nc2ccccc2F)nc(Nc2ccccc2F)n1)Nc1ccccc1	27 µM
O=C(NC1CCN(c2nc(-c3cccnc3)nc3ccccc23)CC1)c1cccnc1	15.1 µM
COc1cc(OC)c(NC(=O)Cn2c(=O)n(Cc3ccccc3Cl)c(=O)c3cc(OC)c(OC)cc32)cc1Cl	3.28 µM
O=c1c(-c2nc(C3CC3)no2)cccn1Cc1c(F)cccc1Cl	1.82 µM
Cc1nn(C)c2c1[C@@H](c1ccc(F)c(Br)c1)[C@H](NC(=O)c1ccccc1)C(=O)N2	3.79 µM
COc1ccc(NS(=O)(=O)c2cc(NC(=O)CCc3nc4ccccc4s3)ccc2C)cc1	24.1 µM
CC(C)NC(=O)CN1C(=O)CC(C)Sc2ccc(S(=O)(=O)N3CCCCC3)cc21 (stereo unspecified)	41.6 µM
Cc1cc(/C=C2/C(=N)N3C(c4ccccc4)=CSC3=NC2=O)c(C)n1-c1ccc2ccccc2c1	> 50 µM (inactive)
COc1ccc(OC)c(CCNC(=O)CCC2=NS(=O)(=O)c3ccc(C(F)(F)F)cc3N2)c1	23.6 µM
COc1ccc(S(=O)(=O)Nc2ccc(Nc3ccc(-n4cccn4)nn3)cc2)cc1	41 µM
COCCNC(=O)Cn1c(=O)n(Cc2ccccc2)c(=O)c2c3c(sc21)CCC3	32.7 µM
CSc1nc2ncn(CC(=O)Nc3cccc(Cl)c3)c(=O)c2s1	> 50 µM (inactive)
COc1ccccc1CNC(=O)CCCn1c(=O)c2ccccc2n(CC(=O)N2CCN(c3ccccc3)CC2)c1=O	28.8 µM
CCC/C=C\C#CC/C=C\CCCCCCCC(=O)O	1.09 µM

Structure (SMILES)	IC50
CSc1ccc(CNC(=O)CC2CCN(S(=O)(=O)c3ccc(C)cc3)CC2)cc1	16.3 µM
CCc1ccc(NC(=O)Cc2nnc3cc(-c4nc(C)no4)ccn23)cc1	4.07 µM
N#Cc1ccc(Cl)cc1NC(=O)COc1cccnc1[N+](=O)[O-]	49.8 µM
O=C(Nc1ccc2c(c1)OCCO2)C1CCN(C(=O)c2ccccc2)CC1	9.44 µM
Cc1cccc(NC(=O)Nc2ccc(C)n(CC(=O)Nc3ccccc3)c2=O)c1	4.73 µM
Cc1ccc2c(C)nc(Nc3ncc4c(n3)CC(c3ccco3)CC4=O)nc2c1 (stereo unspecified)	< 0.05 µM
Cc1nc(SCC#N)c2oc3ccccc3c2n1	40 µM
COc1ccc(NC2c3ccccc3C(=O)N2c2ccccn2)cc1 (stereo unspecified)	> 50 µM (inactive)
O=C(CNC(=O)c1cc2ccccc2[nH]1)Nc1ccc2c(c1)OCCO2	45.9 µM
O=C(c1cn(-c2cccc(F)c2)nn1)N1CCc2ccccc2C1	22.8 µM
CC(=O)c1cccc(NC(=O)c2ccc3[nH]c4c(c3c2)CC(C)CC4)c1 (stereo unspecified)	> 50 µM (inactive)
COc1cccc(NC(=O)CCc2c(C)nn(-c3cc(N4CCCCC4)ncn3)c2C)c1	7.17 µM
O=c1ncn(Cc2ccc3c(c2)OCO3)cc1-c1ncc(C(F)(F)F)cc1Cl	> 50 µM (inactive)
Cn1c2ccccc2c(=O)c2c(=O)n(Cc3ccccc3)c(-c3ccccc3F)nc21	0.108 µM
Cc1nn(Cc2ccccc2)c(Cl)c1C(=O)NC1CCCc2ccccc21 (stereo unspecified)	> 50 µM (inactive)
CCOc1ccc(-n2c(C)cc(/C=C(\C#N)c3nc4ccccc4[nH]3)c2C)cc1	> 50 µM (inactive)
Fc1cnc(N2CC[C@H]3CO[C@H](CNc4ncccn4)[C@H]3C2)nc1	> 50 µM (inactive)
Cc1cc(Nc2ccc(C(=O)NCc3ccco3)cc2)n2nc(-c3cccnc3)nc2n1	22.3 µM
Cn1c(=O)c(C(=O)CN2CCN(c3ccc(O)cc3)CC2)c(N)n(Cc2ccccc2)c1=O	49.4 µM
O=C(COC(=O)c1ccc2[nH]c3c(c2c1)CCCC3)Nc1ccc2c(c1)OCO2	23.6 µM
Cc1ccc(C)c(Cn2nnc3c(=O)[nH]c(C4CCN(S(=O)(=O)c5ccc(S(=O)(=O)NC6CC6)cc5)CC4)nc32)c1	9.09 µM
CC(=O)Nc1ccc(NC(=O)c2cc(-c3cc(C)cc(C)c3O)n[nH]2)cc1	10.8 µM
Cc1ccn(-c2ccc(NC(=O)C3CCCCC3)cc2)n1	22.6 µM
CC(=O)Nc1cc2cc(-n3cccc3)ccc2oc1=O	24.9 µM

Structure (SMILES)	IC50
Fc1cccc(-n2cc(-c3noc(-c4ccc[nH]4)n3)nn2)c1	27.5 µM
O=C(Nc1ccc(-c2nnc3n2CCCCC3)cc1)c1ccc2c(c1)OCO2	7.43 µM
Cc1cc(C)c2c(-n3cccc3)c(C(=O)NCCc3ccc(S(N)(=O)=O)cc3)sc2n1	2.55 µM
CSc1cccc(NC(=O)CCc2ccc3nc(NC(C)=O)sc3c2)c1	> 50 µM (inactive)
Cc1ccc(NC2=NC(c3ccco3)n3c(nc(C)cc3=O)N2)c(C)c1 (stereo unspecified)	8.38 µM
O=C(Nc1ccc(-c2cn3ccsc3n2)cc1)c1ccc(Cl)c([N+](=O)[O-])c1	1.53 µM
Cc1ccccc1NC(=O)c1ccc(N2CCCCC2)nn1	> 50 µM (inactive)
CCCn1c(=O)n(CC(=O)c2ccccc2F)c2c(C(N)=O)nc(-c3ccco3)nc21	> 50 µM (inactive)
CSc1ncccc1C(=O)NC1(O)C(=O)c2ccccc2C1=O	29 µM
N#C/C(=C\c1ccc(-c2cc(Cl)ccc2Cl)o1)c1nnc2n1CCCCC2	> 50 µM (inactive)
Cc1nc(SCC(=O)Nc2cc(Cl)ccc2C)c2oc3ccccc3c2n1	2.06 µM
CN(CCCNC(=O)c1cccc2c1SCCC2=O)c1ccccc1	> 50 µM (inactive)
O=C(NCc1nc(-c2ccc3c(c2)[nH]c(=O)n3C2CCCC2)no1)c1ccccc1	> 50 µM (inactive)
COc1ccc(NC(=O)c2ccnc(Nc3ccc(OC)cc3)c2)cc1	39.7 µM
Cc1nc2cc(NC(=O)C3CN(C(=O)c4cnccn4)C3)ccc2s1	9.44 µM
CCc1ccc(C(C)NC(=O)C2CCN(c3ccc4nncn4n3)CC2)cc1 (stereo unspecified)	16.4 µM
O=C(NCc1ccc(Cl)cc1)c1ccc(N2CCCS2(=O)=O)cc1	> 50 µM (inactive)
Cc1cccc(C(=O)Nc2ccccc2Sc2nc3c(c(=O)n(C)c(=O)n3C)n2C)c1	42.6 µM
c1cncc(-c2nc(Nc3ccc4c(c3)OCCO4)c3ccccc3n2)c1	34.9 µM
CN1C(=O)[C@@]23C[C@]4([C@@]56C[C@]78SS[C@](CO)(C(=O)N7[C@@H]5Nc5ccccc56)N(C)C8=O)c5ccccc5N[C@@H]4N2C(=O)[C@]1(CO)SS3	> 50 µM (inactive)
CC(C)(C)C(=O)[C@@H]1[C@@H](C(=O)c2ccc3c(c2)OCO3)[C@@]2(C(=O)Nc3ccccc32)[C@H]2c3ccccc3C=CN12	44.5 µM
CN1CC2CN(C(=O)c3ccc(F)cc3)CCN2Cc2ccccc21 (stereo unspecified)	> 50 µM (inactive)
O=C(NCc1ccccc1Cl)c1ccc2cn[nH]c2c1	10.1 µM
COc1ccc2c(C)c(CC(=O)N3CCC[C@H]3C(=O)O)c(=O)oc2c1C	44.6 µM

Structure (SMILES)	IC50
Cc1ccc2cc3c(nc2n1)CCN(Cc1ccc(F)cc1)C3	> 50 µM (inactive)
Fc1ccc(CN2CCc3nc4cccnc4cc3C2)cc1	> 50 µM (inactive)
O=C(NCc1ccc(F)cc1)C1CCCN(c2cnc3nccnc3c2)C1 (stereo unspecified)	> 50 µM (inactive)
C/C1=C/CC(O)/C=C/C(C)C(O)C(C)/C=C(\C)C(=O)c2c(O)c(C)cc3c2C(=O)C(Cl)=C(NC(=O)\C=C/C=C/C=C\C(C)C(O)CC1=O)C3=O (stereo unspecified)	31.3 µM
O=C(/C=C/C=C/C=C/C1CCCCC1)NC1=C[C@@](O)(/C=C/C=C/C=C/C(=O)NC2=C(O)CCC2=O)[C@@H]2O[C@@H]2C1=O	3.62 µM
CCc1cccc(CC)c1NC(=O)COC(=O)c1cc2cccc(OC)c2oc1=O	16.4 µM
COc1ccc(-c2cc(-c3nnc(CSc4nc5ccccc5n4C)o3)c3ccccc3n2)cc1OC	> 50 µM (inactive)
O=C(Nc1oc2ccccc2c(=O)c1-c1ccc2c(c1)OCO2)C1CCCCC1	33.1 µM
Cc1noc(C)c1COc1cccc(C(=O)Nc2cc(Cl)ccc2-n2cncn2)c1	> 50 µM (inactive)
O=C1CC(C(=O)Nc2ccccc2F)n2nc(-c3ccccc3)cc2N1 (stereo unspecified)	21.9 µM
COc1ccc(OC)c(NC(=O)c2ccc(-n3nnnc3SC)cc2)c1	22.6 µM
CC[C@H](C)[C@H](NC(=O)[C@H]([C@@H](C)CC)N(C)C(C)=O)C(=O)N[C@H](C(=O)N[C@@H](CC(C)C)C(=O)C1(C)CO1)[C@@H](C)O (stereo partly specified)	> 50 µM (inactive)
COCC(C)Nc1ncc(-c2cnccn2)c(-c2ccc(C)s2)n1 (stereo unspecified)	> 50 µM (inactive)
Cc1cc2nc(-c3ccc(SCc4ccccn4)nc3)[nH]c2cc1C	12.5 µM
COCCCn1c(C(=O)NCCc2ccccc2)cc2c(=O)n3cccc(C)c3nc21	42.1 µM
CC(=O)c1ccc(NC(=O)CC2C(=O)Nc3nc4ccccc4n32)cc1 (stereo unspecified)	27.3 µM
COc1cccc(-n2c(CNCc3cccnc3)nc3ccc([N+](=O)[O-])cc3c2=O)c1	20.2 µM
CCOc1ccc(NC(=O)c2nc3c(=O)[nH]c4cc(C)ccc4n3n2)cc1	47.5 µM
O=C(Cn1cc(C(=O)C(F)(F)F)c2ccccc21)N1CCc2ccccc21	2.68 µM
Cc1cccc(NC(=O)Cn2c(N3CCOCC3)nc3cc(C)n(C)c3c2=O)c1	16.3 µM
O=C(Nc1ccc(SCc2nnc(-c3ccccc3)o2)cc1)C1CC1	8.42 µM
Cc1nn(-c2ccccc2)c2c1N=C1C(Cl)=CC(Cl)=CN1C21C(=O)Nc2ccccc21 (stereo unspecified)	> 50 µM (inactive)
CCCc1c(C(=O)O)c(O[C@H]2O[C@H](C)[C@@H](OC)[C@H](OC)[C@@H]2OC)cc2cc3c(c(O)c12)C(=O)c1c(O)cc(O[C@@H]2O[C@@H](C)[C@H](O[C@H]4O[C@H](C)[C@@H](OC)[C@H](OC)[C@@H]4O)[C@@H](OC)[C@H]2O)cc1C3=O	> 50 µM (inactive)
COc1ccc(CCNC(=O)c2cn(-c3ccc(F)cc3)nn2)cc1OC	20.8 µM
